Test results published in ChEMBL document CHEMBL1201862, “PubChem BioAssay data set” (2004).
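Compound exposure: 48 hours, 5 concentrations, 96-well plates. GI50 marks 50% less growth.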 The source made the active and inactive calls. Cut-off read from the data, not from the text of the source: active = GI50 up to about 1.1 µM and inactive = higher.

Assays:
Assay in all cases: inhibition of tumour cell growth, NCI panel, 48 h
[1] = system: A498
[2] = system: COLO 205
[3] = system: DLD-1
[4] = system: DMS-114
[5] = system: LOX IMVI
[6] = system: LXFL 529
[7] = system: SK-MEL-28
[8] = system: SK-OV-3
[9] = system: SNB-19
[10] = system: SNB-75
[11] = system: SNB-78
[12] = system: SW-620
[13] = system: UACC-62
[14] = system: UO-31
[15] = system: XF498
[16] = system: NCI-H460
[17] = system: OVCAR-4
[18] = system: Hs-578T
[19] = system: MDA-MB-435
[20] = system: T47D

| Structure (SMILES) | GI50 [1] | GI50 [2] | GI50 [3] | GI50 [4] | GI50 [5] | GI50 [6] | GI50 [7] | GI50 [8] | GI50 [9] | GI50 [10] | GI50 [11] | GI50 [12] | GI50 [13] | GI50 [14] | GI50 [15] | GI50 [16] | GI50 [17] | GI50 [18] | GI50 [19] | GI50 [20] |
| --- | --- | --- | --- | --- | --- | --- | --- | --- | --- | --- | --- | --- | --- | --- | --- | --- | --- | --- | --- | --- |
| CN1CN(C(=O)N2CN(C)C(=O)N(C)C2)CN(C)C1=O | > 100 µM (inactive) | > 100 µM (inactive) | > 100 µM (inactive) | > 100 µM (inactive) | > 100 µM (inactive) | > 100 µM (inactive) | > 100 µM (inactive) | > 100 µM (inactive) | > 100 µM (inactive) | > 100 µM (inactive) | > 100 µM (inactive) | > 100 µM (inactive) | > 100 µM (inactive) | > 100 µM (inactive) | > 100 µM (inactive) | – | – | – | – | – |
| CC(=O)NNc1nc(C)c(C(=O)NNC(=O)C(=O)Nc2c(C)cccc2C(C)(C)C)s1 | > 100 µM (inactive) | 46.8 µM (inactive) | 61.8 µM (inactive) | – | 57.8 µM (inactive) | 69.8 µM (inactive) | > 100 µM (inactive) | > 100 µM (inactive) | > 100 µM (inactive) | > 100 µM (inactive) | > 100 µM (inactive) | > 100 µM (inactive) | 97.9 µM (inactive) | 47.8 µM (inactive) | > 100 µM (inactive) | 52.2 µM (inactive) | 40.3 µM (inactive) | – | – | – |
| COCC(=O)[C@]1(O)Cc2c(O)c3c(c(O)c2[C@@H](OC2CC(N)C(O)C(C)O2)C1)C(=O)c1c(OC)cccc1C3=O (some centres not stated) | 0.104 µM (active) | 0.168 µM (active) | 0.0532 µM (active) | 0.0718 µM (active) | 0.0191 µM (active) | 0.0713 µM (active) | 0.0935 µM (active) | 0.254 µM (active) | 0.0889 µM (active) | 0.0343 µM (active) | 0.278 µM (active) | 0.0209 µM (active) | 0.0545 µM (active) | 0.0883 µM (active) | 0.0573 µM (active) | 0.0235 µM (active) | 0.0826 µM (active) | < 0.01 µM (active) | 0.188 µM (active) | 0.106 µM (active) |
| CC(C(=O)OCc1ccccc1)N(Cc1ccccc1)Cc1ccccc1 (configuration not stated) | > 100 µM (inactive) | > 100 µM (inactive) | > 100 µM (inactive) | 60.7 µM (inactive) | – | > 100 µM (inactive) | > 100 µM (inactive) | > 100 µM (inactive) | > 100 µM (inactive) | 42.7 µM (inactive) | > 100 µM (inactive) | > 100 µM (inactive) | > 100 µM (inactive) | 75.3 µM (inactive) | 24 µM (inactive) | > 100 µM (inactive) | > 100 µM (inactive) | – | – | – |
